Test results from patent US20210353749A1, “GUANABENZ AS AN ADJUVANT FOR IMMUNOTHERAPY” (UNIVERSITÉ CATHOLIQUE DE LOUVAIN, priority 2018, published 2021).

Experiments:
Mouse NK cells = assay: In vitro NK cell function (CD107a degranulation); format: cell-based; details: guanabenz 20 μM, 16 hours, RMA-S target cells; FIG. 10
Protocol: Mouse NK cells: murine NK cells were isolated from mouse splenocytes using anti-CD49b magnetic beads. Murine NK cells were isolated from mouse splenocytes using anti-CD49b magnetic beads and were activated in vitro by co-incubation with irradiated RMA-S cells. 4 days after activation, they were collected and plated at 50,000 cells per well in a 96 U plate with 20 μM of guanabenz and incubated at 37° C. overnight prior to their use in the assay on the next day. On the day of the assay, the culture supernatant was removed from the cells and the cells were washed once with complete medium to remove the drug. The target cells (RMA-S cells) were added to the wells at a ratio of 1:1. Control wells containing either only NK cells or target cells were also included for each plate. CD107a-APC was added to each well at the same time as addition of the target cells. The plate was then incubated at 37° C. for 90 minutes. At the end of the incubation period the cells were harvested and washed once with PBS. They were stained with anti-mouse CD49b-PE antibody for 15 minutes. The cells were then washed and resuspended in PBS and analyzed using FACS Fortessa flow cytometer.

TiRP tumor [1] = assay: TiRP melanoma model with adoptive cell transfer of activated P1A-specific CD8+ T cells; format: in vivo, mouse
Description: TiRP mice: TiRP mice have been created by crossing Ink4a/Arf^flox/flox mice with mice carrying a transgenic construct controlled by the tyrosinase promoter and driving the expression of H-Ras^12V and Trap1a which encodes a MAGE-type tumor antigen P1A; the promoter is separated from the coding region by a stop cassette made of a floxed self-deleting CreER (Huijbers et al., 2006, Cancer Res 66, 3278-3286). Those mice were backcrossed to a B10.D2 background and bred to homozygosity. TCRP1A mice heterozygous for the H-2Ld/P1A35-43-specific TCR transgene were kept on the B10.D2; Rag1^−/− background (Shanker et al., 2004, J Immunol 172, 5069-5077). All mice used in this study were produced under specific pathogen free (SPF) conditions at the animal facility of the Ludwig Institute for Cancer Research. All the rules concerning animal welfare have been respected according to the 2010/63/EU Directive. All procedures were performed with the approval of the local Animal Ethical Committee, with reference 2015/UCL/MD/15.
A fresh solution of 40H-Tamoxifen was prepared by dissolving 40H-Tamoxifen (Imaginechem) in 100% ethanol and mineral oil (ratio 1:9) followed by 30-min sonication, and injected subcutaneously (2 mg/200 μL per mouse) in the neck area of gender-matched 7 weeks old TiRP mice. Tumor appearance was monitored daily and tumors were measured three times/week. Tumor volume (in mm^3) was calculated by the following formula: Volume=width^2×length/2. Tumor-bearing TiRP mice were randomized based on the tumor size when average volume was 400 mm^3, 500 mm^3 or 1000 mm^3 as indicated.
T cells were incubated with guanabenz (10, 20, or 40 μM) for 16 h to 24 h as indicated. Mice received a daily intra-peritoneal injection of guanabenz (5 mg/kg) or vehicle (PBS) from the day of randomization (and the day of ACT when applicable) until the day of sacrifice.
For the adoptive cell transfer (ACT), P1A-specific (TCRP1A) CD8^+ T cells were isolated from spleens and lymph nodes of TCRP1A mice as described hereinabove, and stimulated in vitro by co-culture with irradiated (10.000 rads) L1210-P1A-B7.1 cells (Gajewski et al., 1995, J Immunol 154, 5637-5648) at 1:2 ratio (0.5×10^5 CD8^+ T cells and 10^5 L1210-P1A-B7.1 cells per well in 48-well plates) in IMDM (GIBCO) containing 10% fetal bovine serum supplemented with L-arginine (0.55 mM, Merck), L-asparagine (0.24 mM, Merck), glutamine (1.5 mM, Merck), betamercaptoethanol (50 μM, Sigma), 50 UmL^−1 penicillin and […] (Life Technologies). Four days later, TCRP1A CD8^+ T cells were purified on a Lymphoprep gradient (StemCell) and 10^7 living cells were injected intravenously in 200 μL PBS in TiRP-tumor bearing mice on the day of randomization.
Mice received a daily intra-peritoneal injection of alprenolol (5 mg/kg) or vehicle (PBS) from the day of ACT until the day of sacrifice.
T cells were incubated with sunitinib (0.1, 0.3, 0.8, 2.5 or 4 μM) for 16 h as indicated. Mice received a daily dose of sunitinib (20 mg/kg) or vehicle (PBS) by oral gavage from the day of ACT until the day of sacrifice.

TiRP tumor [2] = assay: TiRP melanoma model with adoptive cell transfer of naïve P1A-specific CD8+ T cells; format: in vivo, mouse; details: guanabenz 5 mg/kg i.p. daily with ACT of 2 million naïve T cells, 4 days after the ACT, vs control; FIG. 6
Protocol: FIG. 6 is a histogram showing the tumor infiltration of P1A-specific CD8^+ T cells evaluated 4 days after ACT of naïve TCRP1A CD8^+ T cells by FACS in mice that received guanabenz (5 mg/kg, i.p.) or vehicle (PBS, i.p.). In the preceding experiments, before being transferred to TiRP-tumor bearing mice, the P1A-specific CD8^+ T were pre-activated in vitro by co-culture with irradiated L1210-P1A-B7.1 cells as described hereinabove. […] TiRP-tumor bearing mice were administered an adoptive cell transfer (ACT) of 2 million of naïve P1A-specific CD8^+ T cells and daily injections of guanabenz from the day of the ACT. […] Thus, when the mice were administered guanabenz, the transferred naïve CD8^+ T cells were properly primed and populated the tumor.

NC(N)=N/N=C/c1c(Cl)cccc1Cl [guanabenz, 2-[(E)-(2,6-dichlorophenyl)methylideneamino]guanidine]
NK cell degranulation (FACS detection of CD107a) (Mouse NK cells): significantly increased | tumor growth (TiRP tumor [1]; guanabenz 5 mg/kg i.p. daily with ACT of 10 million activated T cells, day 0 to day 18, vs ACT alone, FIG. 5A): significantly decreased | tumor infiltration of CD8+ T cells (P1A tetramer+ CD8+ T cells among total living cells and among total CD8+ T cells) (TiRP tumor [1]; guanabenz 5 mg/kg i.p. daily with ACT, 10 days after ACT, FIG. 5C-D): increased | apoptosis of the adoptively transferred CD8+ T cells (TiRP tumor [1]; guanabenz 5 mg/kg i.p. daily with ACT, 10 days after ACT, FIG. 5E): reduced | percentage of CD69+ P1A-specific CD8+ T cells (T cell activation marker) (TiRP tumor [1]; guanabenz 5 mg/kg i.p. daily with ACT, 10 days after ACT, FIG. 5F): increased percentage | tumor weight on the day of sacrifice (TiRP tumor [1]; guanabenz 5 mg/kg i.p. daily with ACT, day 18, vs ACT alone, FIG. 5B): significantly decreased | tumor infiltration of P1A-specific CD8+ T cells (TiRP tumor [2]): significantly increased
